Experimental data reported in ChEMBL document CHEMBL6078694, “Divergent Metabolism of Cyclo-l-Trp-l-Leu in Streptomyces albofaciens by Hydroxylation and Nucleobase Transfer with Two Cytochrome P450 Enzymes” (J Nat Prod, 2024).
Activity calls are given as the source filed them.

Tests used:
Type in all cases: functional, organism-based
Conditions in all cases: time 16-20 hrs
Escherichia coli = test: Antibacterial activity against Escherichia coli ATCC 35218 assessed as reduction in bacterial growth measured after 16 to 20 hrs by agar disk diffusion method
Enterococcus faecalis = test: Antibacterial activity against Enterococcus faecalis DSM 2570 assessed as reduction in bacterial growth measured after 16 to 20 hrs by agar disk diffusion method
Klebsiella pneumoniae = test: Antibacterial activity against Klebsiella pneumoniae DSM 26371 assessed as reduction in bacterial growth measured after 16 to 20 hrs by agar disk diffusion method
Bacillus subtilis = test: Antibacterial activity against Bacillus subtilis NCLB3610 assessed as reduction in bacterial growth measured after 16 to 20 hrs by agar disk diffusion method
Niallia circulans = test: Antibacterial activity against Bacillus circulans NRRL B-380 assessed as reduction in bacterial growth measured after 16 to 20 hrs by agar disk diffusion method
Staphylococcus aureus = test: Antibacterial activity against Staphylococcus aureus ATCC29213 assessed as reduction in bacterial growth measured after 16 to 20 hrs by agar disk diffusion method
Staphylococcus delphini = test: Antibacterial activity against Staphylococcus delphini DSM 20771 assessed as reduction in bacterial growth measured after 16 to 20 hrs by agar disk diffusion method
Pseudomonas aeruginosa = test: Antibacterial activity against Pseudomonas aeruginosa ATCC 27853 assessed as reduction in bacterial growth measured after 16 to 20 hrs by agar disk diffusion method

Measured: Activity

CC(C)C[C@@H]1NC(=O)[C@@H]2C[C@]3(c4nc5c(=O)[nH]c(N)nc5[nH]4)c4ccccc4N[C@@H]3N2C1=O
inactive: Escherichia coli | Enterococcus faecalis | Klebsiella pneumoniae | Bacillus subtilis | Niallia circulans | Staphylococcus aureus | Staphylococcus delphini | Pseudomonas aeruginosa

CC(C)C[C@@H]1NC(=O)[C@H]([C@@H](O)c2c[nH]c3ccccc23)NC1=O
inactive: Escherichia coli | Enterococcus faecalis | Klebsiella pneumoniae | Bacillus subtilis | Niallia circulans | Staphylococcus aureus | Staphylococcus delphini | Pseudomonas aeruginosa
